Reference: patent US20080287396A1, “Phosphonated Fluoroquinolones, Antibacterial Analogs Thereof, and Methods for the Prevention and Treatment of Bone and Joint Infections” (TARGANTA THERAPEUTICA INC., priority 2005, published 2008)
Where two headings read alike, the source gives them in different places.

Columns and labels:
[1] = Levels of bisphosphonated prodrugs in rat tibia in vivo; conditions: for half-life: female, CD, tibia (bone); for concentration of prodrug present in bone, in words: single IV bolus (49: 18.8; 52: 15.8; 54: 17.4 mg/kg)
Procedure: In order to investigate the bone binding and rate of decomposition of bisphosphonated fluoroquinolone prodrugs in vivo, rats were treated with bisphosphonated moxifloxacin prodrug 52 or bisphosphonated gatifloxacin prodrug 49 or 54 and the drug content of their tibiae was analyzed at different time points after injection. Female CD rats (age, 57 to 70 days; n=5/group; Charles River, St-Constant, Canada) were administered a single bolus intravenous (tail vein) dose of compound 49, 52 or 54 (dissolved in 0.85% NaCl) at respectively 18.8 mg/kg (equivalent to 9 mg/kg of 15), 15.8 mg/kg (equivalent to 10 mg/kg of 3) and 17.4 mg/kg (equivalent to 10 mg/kg of 15) of body weight. Animals were humanely sacrificed at specified time points after i.v. dosing to evaluate the levels of 49, 52 or 54 in the bone. Tibiae were recovered by dissection, cleaned from soft tissues, ground using a metal ball mill (Retsch MM301™) and kept at −80° C. before determination of the drug concentration of the bone.
The experimentally obtained ground bone powder was suspended in 5% formic acid in methanol (500 mg/1.6 mL). The mixture was vortexed for 10 min and centrifuged for 10 min at 10 000 g. The resulting pellet was dried, weighed and used for the determination of the amount of bisphosphonated prodrug.
For the dosage of the prodrug in the tibia, the standards, QCs (Quality Controls) and blanks were prepared (in duplicate) as follows: to 20 mg of dry blank tibia powder were added a spiking solution (10 μL) of prodrug and 990 μL of buffer (0.1M tris-HCl, pH 7, 0.15M NaCl); the mixture was vortexed for 10 min (RT), centrifuged for 15 min at 10 000 g (RT), the supernatant discarded and the pellet kept for the cleavage procedure. The range of the standards (6 levels) was from 0.05 to 10 μM and the QC levels were 0.075, 0.75 and 7.5 μM.
To each standard, QC, blank and experimental sample tibia bone pellet (20 mg of dry weight) was added 500 μL 6N NaOH for the cleavage of the prodrug into the drug (moxifloxacin 3 or gatifloxacin 15). After an incubation at 50° C. for 1 hour (for 49) or 2 hours (for 52 and 54), the mixture was acidified with 6N HCl (500 μL) and the internal standard (gatifloxacin 15 for 52 and moxifloxacin 3 for 49 and 54) was added. After a centrifugation of 15 min at 10 000 g (RT), the supernatant was extracted on a Strata™ cartridge (30 mg/l ml), using 100% methanol as the eluent. The eluent was evaporated to dryness under a stream of argon and the dried residue was reconstituted in 200 μL of the mobile phase used in the LC/MS analysis by vortexing for 15 min. After centrifugation for 15 min at 10 000 g, 20 μL of the supernatant was injected into the LC/MS analyser.
The quantity of drug resulting from the cleavage of the prodrug was analyzed on an Agilent 1100™ series LC/MSD trap. The supernatant was injected into a Zorbax™ SB-Aq column (2×30 mm, 3.5μ), using 0.1% formic acid in water: 0.1% formic acid in acetonitrile (85:15) as the mobile phase at a flow rate of 0.3 mL/min. […] The detected ions were determined in single reaction mode (SRM).
For the determination of 52, moxifloxacin 3 was analyzed for m/z 402.2 and the internal standard (gatifloxacin 15) for m/z 376.1→332.1.
For the determination of 49 and 54, gatifloxacin 15 was analyzed for m/z 376.1→332.1 and the internal standard (moxifloxacin 3) was analyzed for m/z 402.2.

[2] = Regeneration of drug from bone powder-bound prodrug; type: in vitro ADME; conditions: PBS vs serum
[3] = Bone powder binding, fluorometric detection; conditions: 1 mg/ml compound, bone meal powder 10 mg/ml in PBS, 37° C., 1 h
Method in brief: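 LC/MS method: 100 μM compound in 0.1 M Tris-HCl pH 7, 0.15 M NaCl shaken 10 min with or without ground rat tibia, centrifuged, unbound compound measured in supernatant. Fluorometric method: 1 mg/ml compound in 10 mg/ml bone meal/PBS, 1 h at 37 °C, pellet washed. Supernatant fluoroquinolone read at 280/465 nm; bound amount taken as input minus recovered.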

[4] = rat, single IV bolus (52: 15.8 mg/kg; 54: 17.4 mg/kg), 7-28 days after injection, read-out: half-life of prodrug in bone (tibia) (converted)

Structure (SMILES): COc1c(N2C[C@@H]3CCCN[C@@H]3C2)c(F)cc2c(=O)c(C(=O)OCC(=O)NC(P(=O)(O)O)P(=O)(O)O)cn(C3CC3)c12 [Compound 52, (1,1-Bisphosphonomethylcarbamoyl)methyl 1-cyclopropyl-6-fluoro-1,4-dihydro-7-((4aS,7aS)-octahydropyrrolo[3,4-b]pyridin-6-yl)-8-methoxy-4-oxoquinoline-3-carboxylate]
- half-life ([1]; rat tibia, IV bolus 15.8 mg/kg, 5 min to 24 h, read-out: half-life for the accumulation process in bone): < 0.0417 days
- half-life [1, 4]: 20 days
- concentration of prodrug present in bone, in words ([1]; rat tibia): high concentrations
- effect of the medium (presence or absence of serum) on regeneration rate [2]: fairly similar rates
- Binding to bone (%) Fluorescence [3]: 98.7%

Structure (SMILES): COc1c(N2CCNC(C)C2)c(F)cc2c(=O)c(C(=O)OCC(=O)NC(P(=O)(O)O)P(=O)(O)O)cn(C3CC3)c12 (stereo not drawn) [Compound 54, (1,1-Bisphosphonomethylcarbamoyl)methyl 7-(3-methylpiperazin-1-yl)-1-cyclopropyl-6-fluoro-1,4-dihydro-8-methoxy-4-oxoquinoline-3-carboxylate]
- half-life [1, 4]: 21 days
- concentration of prodrug present in bone, in words ([1]; rat tibia): high concentrations
- effect of the medium (presence or absence of serum) on regeneration rate [2]: rate deceleration
- Binding to bone (%) Fluorescence [3]: 91%
